Data reported in PubChem BioAssay AID2060900 (Molecular Pharmacology Branch, DTP, NCI, 2025).

Test system: 521955-158-R2-J5-PDC complex spheroids, viability
Assay: Anticancer human tumor 521955-158-R2-J5-PDC patient-derived pancreatic carcinoma cell line growth inhibition [RAS]
Settings: for IC50: curve of first compound; for viability, T/C: stronger effect = lower value
From the text: RAS pathway inhibitors in Combinations in Complex Spheroids
A high-throughput screen of multi-cell type tumor spheroids was designed to identify active combinations of RAS pathway inhibitors and targeted small molecules. Complex spheroids include a stromal component modeled by human endothelial cells (HUVEC) and fibroblasts modeled by human mesenchymal stem cells (MSCs). The concentration ranges selected for each drug and investigational agent were based upon clinically achievable concentrations if the clinical Cmax of the agent was known.
Compounds. The drugs and investigational agents: abemaciclib (NSC768073), cobimetinib (NSC768068), divarasib (GDC6063, NSC841802), docetaxel (NSC628503), GDC-1971 (RLY-1971, NSC841576), gemcitabine (NSC613327), inavolisib (NSC800729), ipatasertib (NSC767898), KB-0742 (NSC834161), MRTX-1133 (NSC836407), osimertinib (NSC779217), RMC-4630 (NSC839698), RMC-6236 (NSC851965), RMC-6291 (NSC852671), Ro-3306 (NSC812927), sapanisertib (NSC764658), SN-38 (NSC673596), staurosporine (NSC755774), SY5609 (NSC837396), and tovorafenib (DAY101, NSC766906), were obtained from the National Cancer Institute (NCI) Developmental Therapeutics Program Chemical Repository. The FDA-approved anticancer drug set is available from the NCI Developmental Therapeutics Program. […] The stock solutions were prepared in dimethyl sulfoxide (DMSO, Sigma-Aldrich, St. Louis, MO, cat. D2650) at 800-fold the tested concentration and stored at -70 degrees C prior to their use. All drugs and investigational agents were tested over a range starting from a high concentration at or near the clinical Cmax and decreasing in half-log increments. If the clinical Cmax for an agent had not been determined, the highest concentration tested was 10 microM.
Cell Culture. All cells were maintained in an incubator at 37 degrees C and 5% CO2 with 95% humidity. The PDC lines were cultured according to standard operating procedures established by the NCI PDMR. All PDCs were thawed and cultured in Matrigel-coated flasks prepared with a working solution of 1X Ham's F-12 nutrient mix, without supplementation (Invitrogen, Waltham, MA, cat. 11765054), 100 U/mL penicillin-streptomycin (Invitrogen, cat. 15140122), and 2.5% Matrigel (Corning Inc., Corning, NY, cat. 354248) for the first three passages. The 362531-283-R-J2-PDC and 782815-120-R-J1-PDC lines were cultured in 6C/Colon 1B media, which includes advanced DMEM/F-12 (Thermo Fisher Scientific, cat. 12634028), 10 mM HEPES (Thermo Fisher Scientific, cat. 15630080), 1X GlutaMAX supplement (Thermo Fisher Scientific, cat. 35050061), 0.1 mg/mL primocin (InvivoGen, San Diego, CA, cat. ant-pm-2), 10% defined fetal bovine serum, heat inactivated (HyClone Laboratories Inc., Logan, UT, cat. SH30070.03HI), 50% L-WRN conditioned media (ATCC, cat. CRL-3276), 1.25 mM N-Acetyl-L-cysteine (Sigma-Aldrich, cat. A9165), 10 mM nicotinamide (Sigma-Aldrich, cat. N0636), 1X B-27 supplement (Thermo Fisher Scientific, cat. 17504044), 1X N-2 supplement (Thermo Fisher Scientific, cat. 17502048), 50 ng/mL human EGF (Thermo Fisher Scientific, cat. PHG0311), and 10 microM Y-27632 dihydrochloride (Tocris Bioscience, cat. 1254). The K12877-001-R-J1-PDC line was cultured in 6I media, which includes all 6C/Colon 1B media plus 10 ng/mL human FGF-10 (PeproTech, cat. 100-26), 1 ng/mL human FGF-2 (PeproTech, cat. 100-18B), 1 µM prostaglandin E2 (Tocris Bioscience, cat. 2296), […] hydrocortisone (Sigma-Aldrich, cat. H4001), and […] bovine insulin (Sigma-Aldrich, cat. I6634). The K86415-001-R-J1-PDC line was cultured in 6D media, which includes all 6C/Colon 1B media components minus the L-WRN conditioned media. The 485176-168-R4-J1-PDC was cultured in PANC media, which includes all 6C/Colon 1B media plus 100 ng/mL human FGF-10 (PeproTech, cat. 100-26), 500 nM SB-431542 (Selleckchem, cat. S1067), and 10 nM gastrin (Tocris Bioscience, cat. 3006). […]

[1] = second compound 0.000949 µM, first compound 0.0316 µM
[2] = second compound 0.000949 µM, first compound 0.1 µM
[3] = second compound 0.000949 µM, first compound 0.316 µM
[4] = second compound 0.000949 µM, first compound 1 µM
[5] = second compound 0.003 µM, first compound 0.0316 µM
[6] = second compound 0.003 µM, first compound 0.1 µM
[7] = second compound 0.003 µM, first compound 0.316 µM
[8] = second compound 0.003 µM, first compound 1 µM
[9] = second compound 0.00949 µM, first compound 0.0316 µM
[10] = second compound 0.00949 µM, first compound 0.1 µM
[11] = second compound 0.00949 µM, first compound 0.316 µM
[12] = second compound 0.00949 µM, first compound 1 µM
[13] = second compound 0.03 µM, first compound 0.0316 µM
[14] = second compound 0.03 µM, first compound 0.1 µM
[15] = second compound 0.03 µM, first compound 0.316 µM
[16] = second compound 0.03 µM, first compound 1 µM
[17] = second compound 0.0949 µM, first compound 0.0316 µM
[18] = second compound 0.0949 µM, first compound 0.1 µM
[19] = second compound 0.0949 µM, first compound 0.316 µM
[20] = second compound 0.0949 µM, first compound 1 µM
[21] = second compound 0.3 µM, first compound 0.0316 µM
[22] = second compound 0.3 µM, first compound 0.1 µM
[23] = second compound 0.3 µM, first compound 0.316 µM
[24] = second compound 0.3 µM, first compound 1 µM
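Note: compound exposure lasted seven days before the viability read.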
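Throughout, for viability, T/C: spheroids also contain HUVEC endothelial cells and mesenchymal stem cells as stroma.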

## Nc1ccn(C2OC(CO)C(O)C2(F)F)c(=O)n1 (centres undefined) + CCn1c(-c2cc(N3CCN(C)CC3)cnc2C(C)OC)c2c3cc(ccc31)-c1csc(n1)CC(NC(=O)C1CC1C)C(=O)N1CCCC(N1)C(=O)OCC(C)(C)C2
Second compound 0.000949 µM
  IC50: < 3.16 nM
Second compound 0.003 µM
  IC50: < 3.16 nM
Second compound 0.00949 µM
  IC50: < 3.16 nM
Second compound 0.03 µM
  IC50: < 3.16 nM
Second compound 0.0949 µM
  IC50: < 3.16 nM
Second compound 0.3 µM
  IC50: < 3.16 nM
Second compound 0.000949 µM, first compound 0.00316 µM
  viability, T/C: 35.3%
Second compound 0.000949 µM, first compound 0.01 µM
  viability, T/C: 29%
[1]
  viability, T/C: 30.2%
[2]
  viability, T/C: 21%
[3]
  viability, T/C: 22.9%
[4]
  viability, T/C: 12%
Second compound 0.003 µM, first compound 0.00316 µM
  viability, T/C: 39%
Second compound 0.003 µM, first compound 0.01 µM
  viability, T/C: 33.4%
[5]
  viability, T/C: 36%
[6]
  viability, T/C: 28%
[7]
  viability, T/C: 20.5%
[8]
  viability, T/C: 17.2%
Second compound 0.00949 µM, first compound 0.00316 µM
  viability, T/C: 32.2%
Second compound 0.00949 µM, first compound 0.01 µM
  viability, T/C: 28.8%
[9]
  viability, T/C: 29.9%
[10]
  viability, T/C: 21.4%
[11]
  viability, T/C: 19.8%
[12]
  viability, T/C: 20.6%
Second compound 0.03 µM, first compound 0.00316 µM
  viability, T/C: 22.5%
Second compound 0.03 µM, first compound 0.01 µM
  viability, T/C: 20.6%
[13]
  viability, T/C: 18.3%
[14]
  viability, T/C: 19.4%
[15]
  viability, T/C: 13.7%
[16]
  viability, T/C: 12.7%
Second compound 0.0949 µM, first compound 0.00316 µM
  viability, T/C: 10.2%
Second compound 0.0949 µM, first compound 0.01 µM
  viability, T/C: 11.2%
[17]
  viability, T/C: 13.3%
[18]
  viability, T/C: 12.4%
[19]
  viability, T/C: 9.85%
[20]
  viability, T/C: 7.8%
Second compound 0.3 µM, first compound 0.00316 µM
  viability, T/C: 13.4%
Second compound 0.3 µM, first compound 0.01 µM
  viability, T/C: 9.3%
[21]
  viability, T/C: 11.2%
[22]
  viability, T/C: 11.1%
[23]
  viability, T/C: 9.17%
[24]
  viability, T/C: 11.8%

## CC1(O)CCCC1n1c(=O)c(C(F)F)cc2cnc(NC3CCN(S(C)(=O)=O)CC3)nc21 (centres undefined) + CCn1c(-c2cc(N3CCN(C)CC3)cnc2C(C)OC)c2c3cc(ccc31)-c1csc(n1)CC(NC(=O)C1CC1C)C(=O)N1CCCC(N1)C(=O)OCC(C)(C)C2
Second compound 0.000949 µM
  IC50: 31.6 nM
Second compound 0.003 µM
  IC50: < 31.6 nM
Second compound 0.00949 µM
  IC50: < 31.6 nM
Second compound 0.03 µM
  IC50: < 31.6 nM
Second compound 0.0949 µM
  IC50: < 31.6 nM
Second compound 0.3 µM
  IC50: < 31.6 nM
[1]
  viability, T/C: 33%
[2]
  viability, T/C: 39%
[3]
  viability, T/C: 36.6%
[4]
  viability, T/C: 42.8%
Second compound 0.000949 µM, first compound 3.16 µM
  viability, T/C: 63.2%
Second compound 0.000949 µM, first compound 10 µM
  viability, T/C: 9%
[5]
  viability, T/C: 35.6%
[6]
  viability, T/C: 34.5%
[7]
  viability, T/C: 37.5%
[8]
  viability, T/C: 43.1%
Second compound 0.003 µM, first compound 3.16 µM
  viability, T/C: 50.5%
Second compound 0.003 µM, first compound 10 µM
  viability, T/C: 10.9%
[9]
  viability, T/C: 29.2%
[10]
  viability, T/C: 29.9%
[11]
  viability, T/C: 33.2%
[12]
  viability, T/C: 32.6%
Second compound 0.00949 µM, first compound 3.16 µM
  viability, T/C: 49.6%
Second compound 0.00949 µM, first compound 10 µM
  viability, T/C: 9.41%
[13]
  viability, T/C: 18.9%
[14]
  viability, T/C: 20.1%
[15]
  viability, T/C: 20.8%
[16]
  viability, T/C: 24.8%
Second compound 0.03 µM, first compound 3.16 µM
  viability, T/C: 28.9%
Second compound 0.03 µM, first compound 10 µM
  viability, T/C: 6.82%
[17]
  viability, T/C: 10.6%
[18]
  viability, T/C: 13.1%
[19]
  viability, T/C: 13.9%
[20]
  viability, T/C: 16.2%
Second compound 0.0949 µM, first compound 3.16 µM
  viability, T/C: 21.5%
Second compound 0.0949 µM, first compound 10 µM
  viability, T/C: 7%
[21]
  viability, T/C: 10.8%
[22]
  viability, T/C: 11.3%
[23]
  viability, T/C: 11.2%
[24]
  viability, T/C: 13.9%
Second compound 0.3 µM, first compound 3.16 µM
  viability, T/C: 19.1%
Second compound 0.3 µM, first compound 10 µM
  viability, T/C: 6.07%
